Source: publication PMC11917140, “Mining the UniProtKB/Swiss‐Prot database for antimicrobial peptides” (Protein Science : A Publication of the Protein Society, 2025)
Like-named read-outs stand apart in the source and are kept apart here. Residues, ends and D or L forms follow the SMILES beside them. No end group written: not given here.

Tests used:
[1] = test system: Escherichia coli ATCC 25922; assay type: cell-based
Method: (§1) To measure the antimicrobial activity of our selected putative AMPs in vitro, broth microdilution assays were conducted to determine the minimum inhibitory and minimum bactericidal concentrations (MICs and MBCs, respectively), as outlined by the Clinical and Laboratory Standards Institute [CLSI] ([2015]). The adaptations for testing cationic AMPs, as described previously (Wiegand et al., [2008]), were incorporated. The selected peptides were tested against laboratory isolates of E. coli 25922 and S. aureus 29213, which were purchased from the American Type Culture Collection (ATCC; Manassas, VA, USA). Bacteria from frozen stocks were streaked onto nonselective Columbia blood agar with 5% sheep blood (Oxoid) and incubated for 18–24 h at 37°C. To ensure the uniform colony health before the assay, 2–4 colonies were streaked onto a new agar plate and incubated for another 18–24 h at 37°C on the next day. To create a standardized bacterial inoculum, isolated colonies were suspended in Mueller‐Hinton Broth (MHB; Sigma‐Aldrich, St. Louis, MO, USA). The suspension was adjusted to an optical density of 0.08–0.1 at 600 nm, which corresponds to a 0.5 McFarland standard of approximately 1–2 × 10^8 colony‐forming units (CFU)/mL. The inoculum was then diluted 1:250, resulting in a final concentration of 5 ± 3 × 10^5 CFU/mL. The target bacterial density was confirmed by measuring the total viability counts from the final tested inoculum.
(§2) The selected putative AMPs were purchased from and synthesized by GenScript (Piscataway, NJ, USA) in lyophilized format. The peptides were stored at −20°C and were suspended in sterile ultrapure water prior to testing. A two‐fold serial dilution of 1280 to 2.5 μg/mL was prepared in sterile 96‐well polypropylene microtiter plates (Greiner Bio‐One #650261, Kremsmünster, Austria). Then, 100 μL of the standardized bacterial inoculum was added to each well, resulting in a final AMP testing range of 128 to 0.25 μg/mL. The MIC values were determined as the lowest peptide concentration in which no visible bacterial growth was observed after a 20–24 h incubation at 37°C. To determine the MBC values, well contents of the MIC and the two adjacent wells containing the two‐ and four‐fold higher peptide concentrations were plated onto nonselective nutrient agar. The concentration in which 99.9% of the inoculum was killed after an incubation for 24 h at 37°C was reported as the MBC.
(§3) In our tests, we used Ranatuerin‐4—a known AMP from the American bullfrog (Goraya et al., [1998]), and an in‐house peptide [TKPKG]3 (OT15) as the positive and negative control peptides, respectively. We note that OT15 was truncated and derived from a negative control peptide [TKPKG]4 (OT20), not antimicrobial but sharing similar characteristics to AMPs, used in previous studies (Horváti et al., [2017]).

[2] = test system: Staphylococcus aureus ATCC 29213; assay type: cell-based
Method: as §1, §2, §3

[3] = broth microdilution (CLSI, adapted for cationic AMPs), MHB, 5 ± 3 × 10^5 CFU/mL, 20–24 h at 37°C, tested 0.25–128 μg/mL, range from three independent experiments in duplicate, one maximum and one minimum data point dropped
[4] = concentration killing 99.9% of inoculum, plated on nutrient agar, 24 h at 37°C, range from three independent experiments in duplicate, one maximum and one minimum data point dropped

Compound	MIC, E. coli ATCC 25922 ([1]; ATCC 25922) [µg/mL]	MBC, E. coli ATCC 25922 ([1]; ATCC 25922, 24 h) [µg/mL]	MIC, S. aureus ATCC 29213 ([2]; ATCC 29213) [µg/mL]	MIC, E. coli ATCC 25922 [1, 3] [µg/mL]	MIC, S. aureus ATCC 29213 [2, 3] [µg/mL]	MBC, S. aureus ATCC 29213 [2, 4] [µg/mL]	MBC, S. aureus ATCC 29213 ([2]; ATCC 29213, 24 h) [µg/mL]	MBC, E. coli ATCC 25922 [1, 4] [µg/mL]
GLQKLINKIKSQMSRFSTKTNKICGP [HoSa1]	16	16 to 32	128					
ARLDVAAEFRKKWNKWALSRGKR [SuSc1]				128	> 128	> 128		
RSIIRNGIRTLTWRKETKRKKK [ArTh11]	64 to 128			64 to 128	> 128	> 128		
CSCC[C@H](NC(=O)[C@H](C)NC(=O)[C@H](CCC(=O)O)NC(=O)[C@H](Cc1c[nH]c2ccccc12)NC(=O)[C@H](CCCNC(=N)N)NC(=O)[C@@H](N)[C@@H](C)O)C(=O)N[C@@H](CCCCN)C(=O)N[C@@H](C)C(=O)N[C@@H](CCCCN)C(=O)N[C@@H](C)C(=O)N[C@H](C(=O)N[C@@H](CCC(=O)O)C(=O)N[C@@H](CC(C)C)C(=O)N[C@@H](CCCNC(=N)N)C(=O)N[C@H](C(=O)N[C@@H](CS)C(=O)N[C@@H](CS)C(=O)N[C@@H](C)C(=O)N[C@@H](CCCNC(=N)N)C(=O)N[C@@H](CCCNC(=N)N)C(=O)N[C@@H](CCCCN)C(=O)N[C@@H](CCCNC(=N)N)C(=O)O)C(C)C)[C@@H](C)O [HoSa2] (H-TRWEAMKAKATELRVCCARRKR-OH; N-terminus and C-terminus assumed)	> 128	> 128	> 128				> 128	
FLEKPPGPLGARPLGGK [MuMu4, putative AMP mined from UniProt Q9Z0L3, Mus musculus]				> 128	> 128	> 128		> 128
GRGRPKGRGRGRPRGRPRGSKR [GoGo1]				64	> 128	> 128		
CC[C@H](C)[C@H](NC(=O)[C@H](CC(C)C)NC(=O)[C@H](CC(=O)O)NC(=O)[C@H](CCCNC(=N)N)NC(=O)[C@H](CO)NC(=O)[C@H](CS)NC(=O)[C@H](Cc1c[nH]cn1)NC(=O)[C@H](Cc1c[nH]cn1)NC(=O)[C@H](Cc1c[nH]cn1)NC(=O)[C@H](Cc1ccc(O)cc1)NC(=O)[C@H](CC(C)C)NC(=O)[C@H](Cc1ccccc1)NC(=O)[C@H](CC(N)=O)NC(=O)[C@H](CC(C)C)NC(=O)[C@H](CC(C)C)NC(=O)[C@H](Cc1ccc(O)cc1)NC(=O)[C@H](CO)NC(=O)[C@H](CS)NC(=O)[C@@H](NC(=O)[C@H](Cc1c[nH]c2ccccc12)NC(=O)[C@H](Cc1ccccc1)NC(=O)[C@@H](NC(=O)[C@H](Cc1c[nH]c2ccccc12)NC(=O)[C@H](CC(N)=O)NC(=O)[C@H](CCCCN)NC(=O)[C@H](C)NC(=O)[C@H](Cc1c[nH]c2ccccc12)NC(=O)[C@H](CC(=O)O)NC(=O)[C@H](Cc1c[nH]c2ccccc12)NC(=O)[C@H](C)N)C(C)C)[C@@H](C)O)C(=O)N[C@@H](CCCNC(=N)N)C(=O)N[C@@H](CCCNC(=N)N)C(=O)O [ScPo1] (H-AWDWAKNWVFWTCSYLLNFLYHHHCSRDLIRR-OH; N-terminus and C-terminus assumed)	> 128	> 128	> 128				> 128	
VMRSAGSRSSKR [OrSa6, putative AMP mined from UniProt Q5VRI5, Oryza sativa subsp. japonica]				> 128	> 128	> 128		> 128
RIRGHTIKG [DrMe6, putative AMP mined from UniProt O46201, Drosophila melanogaster]				> 128	> 128	> 128		> 128
QFFLPMILRLYVSRLFISKL [CaGl2, putative AMP mined from UniProt P05040, Candida glabrata]				> 128	> 128	> 128		> 128
GVLKKVIRHKR [HoSa6, putative AMP mined from UniProt P24821, Q29116; Homo sapiens, Sus scrofa]				> 128	> 128	> 128		> 128
SYWWWGFHKNVIDRREAFYADLAEKKKAEN [CaGl1]	> 128	> 128	> 128				> 128	
VLKKSEIRIDFISRTILHI [MoIn1, putative AMP mined from UniProt Q09WW0, Morus indica]					> 128	> 128		
GLIKRIIRQKR [GaGa2]	128		> 128					
RFGRFLRKIRRFRPKVTITIQGSARFG [Chicken CATH-2, reference compound]	8 to 16	8 to 16	32				32	
FWNLNKKKKFFYKTVKNSIGQVILRDMSNN [DiDi2]	16	16	> 128				> 128	
VWEFFEAGAGLRASNASKKIYGVAKRFRR [DiVi1]	> 128	> 128	> 128				> 128	
FMRFGKRFMRFGRFGKSAEVENNIQIAAKQS [LySt2]	> 128	> 128	> 128				> 128	
QVWKRR [HoSa8, putative AMP mined from UniProt Q9BXP8, Homo sapiens]				> 128	> 128	> 128		> 128
DLWFGLKTEGELAFVKRTIFDVIYKSAKRKR [ArTh10]	> 128	> 128	> 128				> 128	
